Assay results as given in patent US4327026A, “Benzodiazepine derivatives” (Hoffmann-La Roche Inc., priority 1980, dated 1982).

What was measured:
aldosterone = test: Aldosterone-antagonistic activity in adrenalectomised rats (urine volume, sodium and potassium excretion); type: in vivo, Female Holtzmann rats; settings: for Volume (urine volume) in %, based on control animals / [K+] (potassium excretion) in %, based on control animals / [Na+] (sodium excretion) in %, based on control animals: 1 mg/kg p.o., 30 min before aldosterone s.c., urine collected 3 hours, vs animals treated only with aldosterone
Procedure: If compounds of formula I are administered to the animals before the treatment with aldosterone, then there is observed, in comparison to animals which are treated only with aldosterone (control animals), a pronounced increase of the sodium excretion (i.e. the sodium retention caused by aldosterone is antagonised), whereas the potassium excretion and the urine volume are influenced to a lesser extent.
The standard experiment is carried out as follows:
Female Holtzmann rats (150-180 g) are bilaterally adrenalectomised 70 to 74 hours before the beginning of the experiment. After the operation, the animals receive a customary rat dry feed and 0.9% sodium chloride solution for drinking. 16-17 hours before the beginning of the experiment the feed is removed from the animals, but they can subsequently drink, as before, 0.9% sodium chloride solution ad libitum. At the beginning of the experiment the substance to be tested as an aldosterone-antagonist is administered to the animals by means of a stomach probe. 30 minutes later the animals receive a subcutaneous injection of […] of aldosterone. After a further 90 minutes, the urinary bladders of the animals are emptied by careful suprapubic pressure, whereupon the animals are placed individually in metabolic cages without food and without drink. The urine of the animals is then collected for 3 hours, whereupon their urinary bladders are once more emptied. The spontaneously excreted urine and the remaining urine obtained at the conclusion of the experiment by pressing-out the urinary bladders are collected in graduated centrifuge glasses. Sodium and potassium concentrations in the urine are determined with a flame photometer.
(§1) The following Table contains results obtained in the previously described experiment with representative compounds of formula I. In this Table there are given for each of the compounds in question the dosage administered (in mg/kg p.o.) as well as the percentage variation in the urine volume, the sodium excretion and the potassium excretion in comparison with the control animals (i.e. in comparison with the animals treated only with aldosterone). Moreover, the Table contains data concerning the acute toxicity of the compounds investigated (LD 50 in mg/kg in the case of single oral administration to mice).

[1] = Acute toxicity, single oral administration to mice; settings: mouse, in vivo, single oral administration (p.o.)
Description: as §1

For `CCN1C(=O)CNC(c2ccccc2F)c2cc(C(C)NCCO)ccc21` (stereo not drawn) [Example 6, 1-ethyl-5-(o-fluorophenyl)-1,3,4,5-tetrahydro-7-/1-[(2-hydroxyethyl)-amino]ethyl/-2H-1,4-benzodiazepin-2-one], the “Volume (urine volume) in %, based on control animals” value (“Volume (urine volume) in %, based” below) (aldosterone) was 150%, the “[K+] (potassium excretion) in %, based on control animals” value (shortened to “[K+] (potassium excretion) in %, based”) (aldosterone) was 93% and the “[Na+] (sodium excretion) in %, based on control animals” value (from here on “[Na+] (sodium excretion) in %, based”) (aldosterone) was 306%. For the same molecule, the LD50 [1] was 4000 mg/kg.
In the case of `CC1N=C(c2ccccc2F)c2cc(C(C)N)ccc2N(C)C1=O` (stereo not drawn) [Example 2, 7-(1-aminoethyl)-5-(o-fluorophenyl)-1,3-dihydro-1,3-dimethyl-2H-1,4-benzodiazepin-2-one], the “Volume (urine volume) in %, based” value (aldosterone) is reported as 169%, the “[K+] (potassium excretion) in %, based” value (aldosterone) is reported as 102% and the “[Na+] (sodium excretion) in %, based” value (aldosterone) is reported as 298%. It also gave an LD50 [1] of 625 mg/kg.
For `CCN1C(=O)CN=C(c2ccccc2F)c2cc(C(C)OCOC)ccc21` (stereo not drawn) [Example 9a, 1-ethyl-5-(o-fluorophenyl)-1,3-dihydro-7-[1-(methoxymethoxy)ethyl]-2H-1,4-benzodiazepin-2-one], the “Volume (urine volume) in %, based” value (aldosterone) was 138%, the “[K+] (potassium excretion) in %, based” value (aldosterone) was 93% and the “[Na+] (sodium excretion) in %, based” value (aldosterone) was 359%. For the same molecule, the LD50 [1] was 500 mg/kg.
With `CN1C(=O)CN=C(c2ccccc2)c2cc(CNC(=O)NCCO)ccc21` [Example 22, 1-[(2,3-dihydro-1-methyl-2-oxo-5-phenyl-1H-1,4-benzodiazepin-7-yl)methyl]-3-(2-hydroxyethyl)urea] the “Volume (urine volume) in %, based” value (aldosterone) was 130%, the “[K+] (potassium excretion) in %, based” value (aldosterone) was 82% and the “[Na+] (sodium excretion) in %, based” value (aldosterone) was 224%. It also gave an LD50 [1] greater than 5000 mg/kg.
With `CCN1C(=O)CNC(c2ccccc2F)c2cc(C(C)N(C)C)ccc21` (stereo not drawn) [Example 7a, 7-[1-(dimethylamino)ethyl]-1-ethyl-5-(o-fluorophenyl)-1,3,4,5-tetrahydro-2H-1,4-benzodiazepin-2-one] the “Volume (urine volume) in %, based” value (aldosterone) was 147%, the “[K+] (potassium excretion) in %, based” value (aldosterone) was 90% and the “[Na+] (sodium excretion) in %, based” value (aldosterone) was 252%. It also gave an LD50 [1] of 500 mg/kg.
With `CCN1C(=O)CNC(c2ccccc2F)c2cc(C(C)=NO)ccc21` (stereo not drawn) [Example 5] the “Volume (urine volume) in %, based” value (aldosterone) was 157%, the “[K+] (potassium excretion) in %, based” value (aldosterone) was 87% and the “[Na+] (sodium excretion) in %, based” value (aldosterone) was 247%. The LD50 [1] was greater than 5000 mg/kg.
With `C[C@]12CCC(=O)C=C1CC[C@@H]1[C@@H]2[C@@H](O)C[C@]2(C=O)[C@@H](C(=O)CO)CC[C@@H]12` [aldosterone, reference compound] the “excreted urine volume after aldosterone” value (aldosterone; vs untreated animals, in words) was “reduction of the excreted urine volume”, the “potassium excretion after aldosterone” value (aldosterone; vs untreated animals, in words) was “increased potassium excretion” and the “sodium excretion after aldosterone” value (aldosterone; vs untreated animals, in words) was “pronounced reduction of the sodium excretion”.
